Converted amounts (≈) assume the structure as drawn.
Columns and labels:
[1] = system: MCF-10A cells; assay: MTT cell viability assay, nonmalignant MCF-10A; format: cell-based; settings: Homo sapiens, 72 h exposure, nonmalignant breast epithelial cells, mean ± SD, read-out: IC50 MCF10-A
Description: (§1) The anticancer activity of the studied compounds (3a–h) was explored with regards to two human breast cancer cell lines, namely the estrogen receptor positive (ER+) MCF-7 cells and the triple negative MDA-MB-231 cells (ER-, PR-, and HER-2/Neu-). Cells were continuously exposed to the test substances for 72 h, after which their viability was assessed by means of the MTT assay. Table 2 lists the determined IC50 values for the investigated substances and the reference drug, thalidomide. […] Additionally, the same test for all the compounds has been performed on nonmalignant breast epithelial cells (MCF-10A) to ascertain their potential cytotoxicity.
(§2) The four cell lines used in this work (MCF-7, MDA-MB-231, MCF-10A, and 3T3-L1) were obtained from the American Type Culture Collection (ATCC, Manassas, VA, USA). All cell lines were maintained at 37 °C in a humidified atmosphere of 95% air and 5% CO2 and periodically screened for contamination. MCF-7, human breast cancer cells estrogen receptor (ER)-positive, and human breast cancer triple negative MDA-MB231 were grown in DMEM-F12 medium containing 2 mmol/L L-glutamine, 1 mg/mL penicillin–streptomycin, and 5% newborn calf serum (NCS) or 5% fetal bovine serum (FBS), respectively. MCF-10A human mammary epithelial cells were cultured in DMEM/F12 medium, supplemented with 5% horse serum (HS) (Eurobio, Les Ullis, Cedex, France), 100 U/mL penicillin/streptomycin, […], 20 ng/mL hEGF (human epidermal growth factor), […], and […] (Sigma-Aldrich, Milano, Italy). BALB/3T3 murine fibroblast cells were cultured in DMEM high glucose supplemented with 10% bovine calf serum (BCS), 1% L-glutamine, and 100 U/mL penicillin/streptomycin.
(§3) Cell viability was evaluated by means of the 3-(4,5-dimethylthiazol-2-y1)-2,5-diphenyltetra zolium bromide (MTT, Sigma-Aldrich, Milan, Italy) assay. On 48-well plates, cells were seeded, and they were cultured in complete medium. Before being treated, cells were starved in serum-free medium for 24 h to allow cell cycle synchronization. Subsequently, cells were exposed to increasing doses of each compound for 72 h in phenol-red-free media supplemented with 1% serum before fresh MTT was added to each well (final concentration: 0.5 mg/mL). Cells were lysed with DMSO after 2 h of incubation at 37 °C, and optical density at 570 nm was then determined with a microplate reader. Using GraphPad Prism 9 software (GraphPad Inc., San Diego, CA, USA), the mean absorbance for each sample was expressed as a percentage over the control and plotted vs. drug concentrations to establish the IC50 values. The given standard deviations (SDs) are indicative of three separate tests carried out in triplicate.

[2] = system: Escherichia coli 25922; assay: Broth microdilution, E. coli ATCC 25922; format: cell-based; settings: 24 h, 37 °C
Source text: (§4) Compounds 3a–h were examined in accordance with the Clinical Laboratory Standards Institute (CLSI) recommendations, by means of the broth microdilution method, against gram-positive bacteria (Staphylococcus aureus 25923, Staphylococcus aureus 29213, Staphylococcus aureus 43300, Enterococcus faecalis 29212) and gram-negative bacteria (Escherichia coli 25922, Klebsiella pneumoniae 13883, Pseudomonas aeruginosa 27853) belonging to the ATCC collection, using levofloxacin as a reference drug. Table 3 lists the results, expressed as MIC (µg/mL). […] The lack of activity observed for compound 3d could be conceivably due to its poor solubility in the culture medium containing the inoculum.
(§5) Following the recommendations of the CLSI (Clinical and Laboratory Standards Institute, 2012), the broth microdilution method was used to determine the in vitro minimum inhibitory concentrations (MICs, µg/mL).. The concentration of the investigated compounds was set to its highest value to create stock solutions. Then, the stock solutions were diluted 1:10 with Cation-Adjusted Mueller Hinton Broth (Oxoid, Milan, Italy). After that, a series of concentrations from 512 µg/mL to […] were obtained in the wells by performing two-fold serial dilutions in the appropriate test medium. The diluent used to create the stock solution was 100% DMSO. We used the following bacterial strains from the ATCC collection that were available as freeze-dried discs: gram-positive strains such as S. aureus ATCC 25923, 29213, and 43300, and E. faecalis ATCC 29212, and gram-negative ones such as E. coli ATCC 25922, K. pneuomoniae ATCC 13883, and P. aeruginosa ATCC 27853. To preserve the purity of cultures and to allow their reproducibility, cryovials of all microbial strains were set up in the medium and stored at −80 °C. Mueller Hinton Broth (MHB) was used to prepare pre-cultures of each bacterial strain, which were then incubated for 3–5 h at 37 °C. In accordance with CLSI procedure M7-A9, the turbidity of the bacterial cell suspension was calibrated to 0.5 McFarland Standard using a spectrophotometric approach (OD625 nm 0.08–0.10). The standardized suspension was then further diluted (1:100) with MHB to reach 1–2 × 10^6 CFU/mL. A 200 µL aliquot of the final inoculum was inserted into each well. As a control for growth, several wells containing only inoculated broth were prepared. The plates were incubated at 37 °C for 24 h, and the MIC values were calculated as the lowest concentration of compounds at which there was no optically detectable bacteria growth. Each experiment was carried out in duplicate and repeated twice to determine the MICs. Levofloxacin served as the study’s standard reference antibiotic. Additionally, the antibacterial activity of DMSO alone (used as a diluent for the investigated compounds) was examined; therefore, volumes of this solvent with a concentration of less than 5% were utilized throughout the experimentation.

[3] = system: MCF-7 cells; assay: MTT cell viability assay, MCF-7; format: cell-based, human; settings: mean ± SD; for IC50: Homo sapiens, MCF7, 72 h exposure
Description: as §1, §2, §3

[4] = system: Staphylococcus aureus 29213; assay: Broth microdilution, S. aureus ATCC 29213; format: cell-based; settings: 24 h, 37 °C
Source text: as §4, §5

[5] = system: Acinetobacter baumanii 19606; assay: Broth microdilution, A. baumanii 19606; format: cell-based; settings: Acinetobacter baumannii, 24 h, 37 °C, read-out: MIC A.b. 19606

SMILES | IC50 [1] [µM] | MIC [2] [µg/mL] | IC50 [3] [µM] | MIC [4] [µg/mL] | MIC [5] [µg/mL] | IC50 MCF-7 ([3]; 72 h exposure)
COc1cc2nc(N3C(=O)c4ccccc4C3=O)sc2cc1OC [3f, 2-[5,6-Dimethoxy-1,3-benzothiazol-2-yl]-1H-isoindole-1,3(2H)-dione] | > 500 | 32 (≈ 94 µM) | 93 ± 1.4 | 64 (≈ 188 µM) | 64 (≈ 188 µM) | –
O=C1c2ccccc2C(=O)N1c1nc2ccccc2s1 [3a, 2-(1,3-benzothiazol-2-yl)-1H-isoindole-1,3(2H)-dione] | > 500 | 64 (≈ 228 µM) | 165.5 ± 1.1 | 64 (≈ 228 µM) | 64 (≈ 228 µM) | –
Cc1ccc2nc(N3C(=O)c4ccccc4C3=O)sc2c1 [3d, 2-[6-Methyl-1,3-benzothiazol-2-yl]-1H-isoindole-1,3(2H)-dione] | > 500 | > 512 | 66 ± 1.2 | > 512 | > 512 | –
O=C1c2ccccc2C(=O)N1c1nc2ccc(F)cc2s1 [3b, 2-(6-Fluoro-1,3-benzothiazol-2-yl)-1H-isoindole-1,3(2H)-dione] | 151.9 ± 1.1 | 64 (≈ 215 µM) | 91.5 ± 0.6 | 64 (≈ 215 µM) | 128 (≈ 429 µM) | –
O=C1c2ccccc2C(=O)N1c1nc2ccc(Oc3ccccc3)cc2s1 [3h, 2-[6-Phenoxy-1,3-benzothiazol-2-yl]-1H-isoindole-1,3(2H)-dione] | 193.9 ± 1 | 32 (≈ 85.9 µM) | 26.2 ± 0.9 | 32 (≈ 85.9 µM) | 32 (≈ 85.9 µM) | –
O=C1c2ccccc2C(=O)N1c1nc2ccc(O)cc2s1 [3g, 2-[6-Hydroxy-1,3-benzothiazol-2-yl]-1H-isoindole-1,3(2H)-dione] | > 500 | 64 (≈ 216 µM) | 71.2 ± 0.7 | 64 (≈ 216 µM) | 64 (≈ 216 µM) | –
COc1ccc2nc(N3C(=O)c4ccccc4C3=O)sc2c1 [3e, 2-[6-Methoxy-1,3-benzothiazol-2-yl]-1H-isoindole-1,3(2H)-dione] | > 500 | 64 (≈ 206 µM) | 223.1 ± 0.9 | 64 (≈ 206 µM) | 64 (≈ 206 µM) | –
O=C1c2ccccc2C(=O)N1c1nc2ccc(C(F)(F)F)cc2s1 [3c, 2-[6-Trifluoromethyl-1,3-benzothiazol-2-yl]-1H-isoindole-1,3(2H)-dione] | > 500 | 128 (≈ 367 µM) | > 500 | 128 (≈ 367 µM) | 128 (≈ 367 µM) | did not possess any activity

Source: publication PMC10740580, “Benzothiazole-Phthalimide Hybrids as Anti-Breast Cancer and Antimicrobial Agents” (Antibiotics, 2023)
